Experimental data as given in article PMC9653409, “Generative deep learning enables the discovery of a potent and selective RIPK1 inhibitor” (Nature Communications, 2022).

What was measured:
[1] = Maximum tolerated dose study in mice
[2] = test system: RIPK1 knockout HT29 cells; assay: TSZ treatment of RIPK1 knockout HT29 cells (CCK8); format: cell-based; conditions: Homo sapiens, HT-29, read-out: Cell Viability (%) Average
Experimental: Cell necroptosis protection assays were performed in 96-well cell culture plates. Cells were plated in each well and cultured at 37 °C overnight. […] The cell survival rate was determined using a CCK8 cell viability assay kit and CLARIOstar (v5.61). […] All experiments were performed at least two times, and each EC50 value was expressed as mean ± standard deviation (SD).
The lentiCRISPRv2 vector targeting RIPK1 (sgRNA, 5’- […]-3’) was constructed by the Azenta company. HEK 293 T cells were transfected with lentiCRISPRv2 targeting RIPK1 and empty vector using Hieff Trans^TM Liposomal Transfection Reagent (Yeasen), respectively. […] The concentrated viruses were added to HT29 cells along with 8 μg/mL of polybrene (Yeasen) to enhance transfection efficiency. The infection assay was repeated in the next day under the same conditions. Finally, HT29 cells were screened with 3 μg/mL puromycin. Western blot analysis was used to confirm the RIPK1 deletion.

[3] = test system: phosphorylation of RIPK1, RIPK3, and MLKL; assay: Western blot of necroptotic signaling proteins in HT29 cells; format: cell-based, human; conditions: HT29, TSZ
Experimental: Cell pellets were collected and resuspended in RIPA lysis buffer (Beyotime), to which phenylmethylsulfonyl fluoride, a […], and a phosphatase inhibitor cocktail (Sigma) had been added. […] The supernatants were collected and subjected to western blot analysis.
The cell proteins or tissue proteins were separated in a polyacrylamide gel and transferred to a methanol-activated polyvinylidene fluoride membrane. The membrane was blocked for 2 h in Tris-buffered saline plus Tween-20 containing 5% milk and then immunoblotted sequentially with primary and secondary antibodies. Detection was performed with an ECL chemiluminescence kit (Abbkine). […]

[4] = test system: pRIPK1, pRIPK3, pMLKL; assay: TNFα-induced SIRS mouse model: liver western blot; format: in vivo, C57BL/6 female mice; conditions: 40 mg/kg i.p.
Experimental: The liver in the SIRS model and the colon in the IBD model were harvested, homogenated and sonicated in RIPA lysis buffer.
The cell proteins or tissue proteins were separated in a polyacrylamide gel and transferred to a methanol-activated polyvinylidene fluoride membrane. The membrane was blocked for 2 h in Tris-buffered saline plus Tween-20 containing 5% milk and then immunoblotted sequentially with primary and secondary antibodies. Detection was performed with an ECL chemiluminescence kit (Abbkine). The antibodies used were human RIPK1 antibody (R&D, 334640, 1:1000), mouse RIPK1 antibody (Affinity, DF2642, 1:1000), human phospho-RIP (Ser166) rabbit mAb (Cell Signaling Technologies, 65746, 1:1000), mouse phospho-RIP (Ser321) rabbit mAb (Cell Signaling Technologies, 38662, 1:1000), human RIPK3 (B-2) antibody (Santa Cruz, sc-374639, 1:250), mouse RIPK3 antibody (Abcam, ab62344, 1:1000), human anti-RIP3 (phospho S227) antibody (Abcam, ab209384, 1:2000), mouse anti-RIP3 (phospho T231 + S232) antibody (Abcam, ab205421, 1:500), anti-MLKL (58–70) antibody (Sigma, M6697, 1:250), human anti-MLKL (phospho S358) antibody (Abcam, ab187091, 1:1000), mouse anti-MLKL (phospho S345) antibody (Abcam, ab196436, 1:1000), and β-actin (Proteintech, 66009-1-Ig, 1:1000).

[5] = test system: TNFα-induced SIRS; assay: TNFα-induced SIRS mouse model: H&E histology of organs; format: in vivo, C57BL/6 female mice; conditions: 40 mg/kg i.p.
Experimental: The body temperatures of the mice were continuously monitored until 6 h after TNFα administration. At 6 h after TNFα injection, four mice in each group were killed at random, and the serums, heart, liver, spleen, lung, and kidney tissues were collected for analysis. Mice mortality was continuously monitored until 72 h after TNFα administration.
The heart, liver, spleen, lung, kidney and colon tissues were fixed directly in 4% paraformaldehyde (24 h), embedded in paraffin, and stained with H&E following standard procedures. All images were acquired using a Pannoramic MIDI scanner.

[6] = test system: kinases that have an inhibitory rate larger than 50%; assay: IC50 against kinases with inhibitory rate larger than 50%; format: biochemical, human; conditions: all except MLK3; read-out: IC50 against all other kinases followed up
Experimental: In vitro kinase activity assays were conducted through the Kinase Profiling Services provided by Eurofins (Eurofins, France). The protocol for the RIPK1 assay is briefly described as follows (Protocols for other kinases are very similar and can be found in http://www.eurofins.com/pharmadiscovery). RIPK1 kinase was incubated with the test compound in assay buffer containing 8 mM MOPS (pH 7.0), 0.2 mM EDTA, 250 μM […], 10 mM magnesium acetate, and 10 μM [γ-33P]-ATP for 15 min at room temperature. The reaction was initiated by the addition of the Mg/ATP mixture. After incubation for 40 min at room temperature, and the reaction was stopped by the addition of 3% phosphoric acid. A 10 μL portion of the reaction mixture was then spotted onto a P30 filter mat and washed four times for 4 min in 0.425% phosphoric acid and once in methanol prior to drying and scintillation counting.

For `CC(C)C(=O)Nc1nc2cc(-c3ccc4c(c3)c(C(=O)NC(C)c3ccccc3)cn4C)ccn2n1` (stereo not drawn) [RI-962], the “impact on mouse organs (H&E staining)” value ([1]; 250mg/kg) was “no obvious impact on different mouse organs”, the tolerability observations ([1]; doses up to 250 mg/kg) was “no observed weight loss and no other side effects” and the viability at 0.000169 µM ([2]; 0.000169 μM + TSZ) was 89.4%. For the same compound, the viability at 0.000508 µM ([2]; 0.000508 μM + TSZ) was 103%, the viability at 0.001524 µM ([2]; 0.001524 μM + TSZ) was 87.5% and the viability at 0.004572 µM ([2]; 0.004572 μM + TSZ) was 87.3%. It also gave a viability at 0.013717 µM ([2]; 0.013717 μM + TSZ) of 90.8%, a viability at 0.041152 µM ([2]; 0.041152 μM + TSZ) of 90.1% and a viability at 0.123457 µM ([2]; 0.123457 μM + TSZ) of 94.4%. For the same compound, the viability at 0.37037 µM ([2]; 0.370370 μM + TSZ) was 104%, the viability at 1.11111 µM ([2]; 1.111111 μM + TSZ) was 97.9% and the “phosphorylation of RIPK1, RIPK3 and MLKL in intact cells” value [3] was “markedly inhibited the phosphorylation of RIPK1 and its downstream signaling proteins RIPK3 and MLKL in a dose-dependent manner”. For the same compound, the “level of pRIPK1 in liver (western blot)” value [4] was “substantially reduced the level of phosphorated RIPK1 (pRIPK1)”, the “damage to the liver and kidney (H&E)” value [5] was “attenuated damage to the liver and kidney” and the IC50 [6] was over 10 µM.
